Tested on: Colletotrichum gloeosporioides (CBS272.51)
Assay: Agar plug bio-assay on YME agar, fungal colony radius towards Streptomyces or natamycin plug
Type: cell-based
Method: Three fungal plant pathogens were tested against the selected S. natalensis strains: Fusarium oxysporum f.sp. lycopersici (CBS414.90), Colletotrichum gloeosporioides (CBS272.51) and Alternaria alternata (CBS103.33). Fusarium oxysporum f.sp. lycopersici is a soil borne fungus causing yield loss in e.g. tomato crops (Fusarium Wilt). Colletotrichum gloeosporioides causes e.g. anthracnose, a plant disease recognizable by dark brown lesions on leaves and fruits. Alternaria alternata is a worldwide occurring saprophyte that can cause phytopathogenic reactions in economically important host plants. The selected S. natalensis strains were tested against these fungal plant pathogens as described below. Frozen vials (glycerol stocks) or freeze dried tubes from the selected S. natalensis strains were transferred to 100 ml baffled Erlenmeyer flasks containing 20 ml of Yeast Malt Extract broth (YME). Freeze dried tubes were resuspended in physiological saline and stored 1 hour at room temperature before they were transferred to the medium. The Erlenmeyer flasks were incubated in an incubator shaker for 3 days at 28° C. and 180 rpm. For each strain, 200 μl of liquid media was transferred to YME agar plates (90 mm petridishes containing 20 ml of media) and dispersed with the use of a sterile spreader onto the surface of the media). Subsequently, the agar plates were incubated for 4 days at 28° C. to enhance full colony coverage of the plate surface. The selected fungi were plated directly from a glycerol stock (200 μl) to YME agar and subsequently incubated for 4 days at 28° C. The bio-assay was done as follows. Overgrown Streptomyces and fungi plates made as described above were used to produce agar plugs. The plugs were made by cutting out the agar by using a sterile cork-borer (11 mm diameter) and subsequently removing it by a pre-sterilized spatula. Freshly produced non-inoculated YME agar plates were marked with a line on the back of the petridish. This line with a fixed length of 4 cm was placed in the middle of the petridish. Subsequently, a Streptomyces inoculated agar plug was transferred to the fresh YME agar plate at the left end of the line. The above-described “plug transfer” step was repeated for the respective fungi. The respective fungi plugs were placed at the right end of the line on the same YME agar plate. Each Streptomyces strain was challenged in triplicate against each fungus. For each tested fungus, a control sample was taken (in triplicate) by using a non-inoculated agar plug that was placed on the left side of the petridish. Next, the plates were placed with the plugs on top in an incubator. Subsequently, the plates were stored at 28° C. for 7 days. After 7 days the radius of the fungal colony was measured in the direction of the opposite agar plug (Streptomyces sample). This step was repeated for the control sample. The inhibition zone (in percentage) was calculated by using the following formula: 100%*(r0−r1)/r0 wherein r0 is the radius (in mm, corrected for the plug radius) of the fungal colony from the control sample and wherein r1 is the radius (in mm, corrected for the plug radius) of the fungal colony from the Streptomyces inhibited sample. Frozen vials (glycerol stocks) from the selected S. natalensis strains were transferred to 100 ml baffled Erlenmeyer flasks containing 20 ml of Yeast Malt Extract broth (YME). The Erlenmeyer flasks were incubated in an incubator shaker for 3 days at 28° C. and 180 rpm. For each strain, 200 μl of liquid media was transferred to YME agar plates and incubated for 4 days at 28° C. to enhance full colony coverage of the plate surface. Botrytis cinerea was plated directly from glycerol stock (100 μl) to YME agar and subsequently incubated for 9 days at 28° C. All other selected fungi were plated directly from a glycerol stock (200 μl) to YME agar and subsequently incubated for 4 days at 28° C. […]

Q: Which results are given for C[C@@H]1C/C=C/C=C/C=C/C=C/[C@H](O[C@@H]2O[C@H](C)[C@@H](O)[C@H](N)[C@@H]2O)C[C@@H]2O[C@](O)(C[C@@H](O)C[C@H]3O[C@@H]3/C=C/C(=O)O1)C[C@H](O)[C@H]2C(=O)O [Natamycin, natamycin]?
A: inhibition at 10 ppm (Colletotrichum gloeosporioides, CBS272, 168 h, Example 7, agar plug with 10 ppm natamycin, 5% w/w methanol, 7 days at 28° C., read-out: Average inhibition zone (in %)): 4%; inhibition at 25 ppm (Colletotrichum gloeosporioides, CBS272, 168 h, Example 7, agar plug with 25 ppm natamycin, 5% w/w methanol, 7 days at 28° C., read-out: Average inhibition zone (in %)): 7%; inhibition at 50 ppm (Colletotrichum gloeosporioides, CBS272, 168 h, Example 7, agar plug with 50 ppm natamycin, 5% w/w methanol, 7 days at 28° C., read-out: Average inhibition zone (in %)): 15%; inhibition at 75 ppm (Colletotrichum gloeosporioides, CBS272, 168 h, Example 7, agar plug with 75 ppm natamycin, 5% w/w methanol, 7 days at 28° C., read-out: Average inhibition zone (in %)): 18%; inhibition at 100 ppm (Colletotrichum gloeosporioides, CBS272, 168 h, Example 7, agar plug with 100 ppm natamycin, 5% w/w methanol, 7 days at 28° C., read-out: Average inhibition zone (in %)): 21%; inhibition at 175 ppm (Colletotrichum gloeosporioides, CBS272, 168 h, Example 7, agar plug with 175 ppm natamycin, 5% w/w methanol, 7 days at 28° C., read-out: Average inhibition zone (in %)): 25%; inhibition at 250 ppm (Colletotrichum gloeosporioides, CBS272, 168 h, Example 7, agar plug with 250 ppm natamycin, 5% w/w methanol, 7 days at 28° C., read-out: Average inhibition zone (in %)): 28%; inhibition at 375 ppm (Colletotrichum gloeosporioides, CBS272, 168 h, Example 7, agar plug with 375 ppm natamycin, 5% w/w methanol, 7 days at 28° C., read-out: Average inhibition zone (in %)): 35%; inhibition at 500 ppm (Colletotrichum gloeosporioides, CBS272, 168 h, Example 7, agar plug with 500 ppm natamycin, 5% w/w methanol, 7 days at 28° C., read-out: Average inhibition zone (in %)): 41%; natamycin concentration in agar plug giving similar inhibition zone as the S. natalensis ATCC-27448 agar plug (Example 7, 7 days at 28° C.): approximately 375 ppm; Fungal radius (in mm) (Example 7, agar plug with 10 ppm natamycin, 5% w/w methanol, 7 days at 28° C.): 44.3 mm; Fungal radius (in mm) (Example 7, agar plug with 25 ppm natamycin, 5% w/w methanol, 7 days at 28° C.): 43.2 mm; Fungal radius (in mm) (Example 7, agar plug with 50 ppm natamycin, 5% w/w methanol, 7 days at 28° C.): 39.3 mm; Fungal radius (in mm) (Example 7, agar plug with 75 ppm natamycin, 5% w/w methanol, 7 days at 28° C.): 37.8 mm; Fungal radius (in mm) (Example 7, agar plug with 100 ppm natamycin, 5% w/w methanol, 7 days at 28° C.): 36.7 mm; Fungal radius (in mm) (Example 7, agar plug with 175 ppm natamycin, 5% w/w methanol, 7 days at 28° C.): 34.8 mm; Fungal radius (in mm) (Example 7, agar plug with 250 ppm natamycin, 5% w/w methanol, 7 days at 28° C.): 33.2 mm; Fungal radius (in mm) (Example 7, agar plug with 375 ppm natamycin, 5% w/w methanol, 7 days at 28° C.): 30.3 mm; Fungal radius (in mm) (Example 7, agar plug with 500 ppm natamycin, 5% w/w methanol, 7 days at 28° C.): 27.3 mm
